Read-outs that look alike come from different tables or passages of the source.
Experiments:
JAK2 = JAK2 (Homo sapiens (Human), UniProt O60674); test: LanthaScreen JAK biochemical assay (JAK2)
JAK1 = JAK1 (Homo sapiens (Human), UniProt P23458); test: LanthaScreen JAK biochemical assay (JAK1)
[1] = test system: IL-13 induced STAT6 phosphorylation in BEAS-2B human lung epithelial cells; test: AlphaScreen cellular JAK potency assay, BEAS-2B
[2] = test system: IL-4 induced STAT6 phosphorylation in THP-1 human monocytic cells; test: Cellular JAK potency assay, THP-1
[3] = IL-13 induced STAT6 phosphorylation, BEAS-2B cells
[4] = IL-4 induced STAT6 phosphorylation, THP-1 cells
[5] = THP-1 cells, IL-4 induced STAT6 phosphorylation
[6] = BEAS-2B cells, IL-13 induced STAT6 phosphorylation
[7] = Homo sapiens, THP-1, read-out: THP-1 IL4 pIC50 (converted)
[8] = Homo sapiens, BEAS-2B, read-out: BEAS2B pIC50 (converted)

Chain of JAK2 (O60674 whole entry): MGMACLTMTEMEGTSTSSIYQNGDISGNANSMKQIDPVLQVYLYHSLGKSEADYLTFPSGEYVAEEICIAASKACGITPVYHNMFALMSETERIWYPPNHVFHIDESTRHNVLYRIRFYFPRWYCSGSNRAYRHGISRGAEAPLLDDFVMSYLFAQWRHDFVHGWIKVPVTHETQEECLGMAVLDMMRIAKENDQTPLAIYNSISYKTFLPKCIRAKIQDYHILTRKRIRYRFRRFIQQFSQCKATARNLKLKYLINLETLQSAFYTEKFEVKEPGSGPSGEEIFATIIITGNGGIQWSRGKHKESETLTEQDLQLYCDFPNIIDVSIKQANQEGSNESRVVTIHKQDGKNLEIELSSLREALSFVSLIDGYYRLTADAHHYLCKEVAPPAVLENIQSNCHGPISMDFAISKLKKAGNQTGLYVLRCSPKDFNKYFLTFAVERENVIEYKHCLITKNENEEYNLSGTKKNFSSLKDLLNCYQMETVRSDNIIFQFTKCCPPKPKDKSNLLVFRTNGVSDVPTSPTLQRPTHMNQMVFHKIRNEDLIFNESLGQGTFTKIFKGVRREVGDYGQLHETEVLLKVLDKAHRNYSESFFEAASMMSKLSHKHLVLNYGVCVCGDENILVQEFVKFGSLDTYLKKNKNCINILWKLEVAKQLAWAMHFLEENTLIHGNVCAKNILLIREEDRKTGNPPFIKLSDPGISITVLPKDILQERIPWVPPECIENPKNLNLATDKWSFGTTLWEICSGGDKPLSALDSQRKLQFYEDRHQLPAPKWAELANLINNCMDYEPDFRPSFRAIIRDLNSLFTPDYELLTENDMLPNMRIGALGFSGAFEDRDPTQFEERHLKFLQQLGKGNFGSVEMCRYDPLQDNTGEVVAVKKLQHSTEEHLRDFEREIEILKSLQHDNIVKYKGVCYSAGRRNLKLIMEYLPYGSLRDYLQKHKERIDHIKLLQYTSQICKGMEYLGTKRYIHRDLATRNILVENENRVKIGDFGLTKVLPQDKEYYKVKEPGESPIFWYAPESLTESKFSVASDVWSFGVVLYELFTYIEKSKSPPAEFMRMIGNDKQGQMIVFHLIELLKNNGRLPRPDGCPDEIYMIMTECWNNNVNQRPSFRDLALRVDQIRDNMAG
Chain of JAK1 (P23458 whole entry): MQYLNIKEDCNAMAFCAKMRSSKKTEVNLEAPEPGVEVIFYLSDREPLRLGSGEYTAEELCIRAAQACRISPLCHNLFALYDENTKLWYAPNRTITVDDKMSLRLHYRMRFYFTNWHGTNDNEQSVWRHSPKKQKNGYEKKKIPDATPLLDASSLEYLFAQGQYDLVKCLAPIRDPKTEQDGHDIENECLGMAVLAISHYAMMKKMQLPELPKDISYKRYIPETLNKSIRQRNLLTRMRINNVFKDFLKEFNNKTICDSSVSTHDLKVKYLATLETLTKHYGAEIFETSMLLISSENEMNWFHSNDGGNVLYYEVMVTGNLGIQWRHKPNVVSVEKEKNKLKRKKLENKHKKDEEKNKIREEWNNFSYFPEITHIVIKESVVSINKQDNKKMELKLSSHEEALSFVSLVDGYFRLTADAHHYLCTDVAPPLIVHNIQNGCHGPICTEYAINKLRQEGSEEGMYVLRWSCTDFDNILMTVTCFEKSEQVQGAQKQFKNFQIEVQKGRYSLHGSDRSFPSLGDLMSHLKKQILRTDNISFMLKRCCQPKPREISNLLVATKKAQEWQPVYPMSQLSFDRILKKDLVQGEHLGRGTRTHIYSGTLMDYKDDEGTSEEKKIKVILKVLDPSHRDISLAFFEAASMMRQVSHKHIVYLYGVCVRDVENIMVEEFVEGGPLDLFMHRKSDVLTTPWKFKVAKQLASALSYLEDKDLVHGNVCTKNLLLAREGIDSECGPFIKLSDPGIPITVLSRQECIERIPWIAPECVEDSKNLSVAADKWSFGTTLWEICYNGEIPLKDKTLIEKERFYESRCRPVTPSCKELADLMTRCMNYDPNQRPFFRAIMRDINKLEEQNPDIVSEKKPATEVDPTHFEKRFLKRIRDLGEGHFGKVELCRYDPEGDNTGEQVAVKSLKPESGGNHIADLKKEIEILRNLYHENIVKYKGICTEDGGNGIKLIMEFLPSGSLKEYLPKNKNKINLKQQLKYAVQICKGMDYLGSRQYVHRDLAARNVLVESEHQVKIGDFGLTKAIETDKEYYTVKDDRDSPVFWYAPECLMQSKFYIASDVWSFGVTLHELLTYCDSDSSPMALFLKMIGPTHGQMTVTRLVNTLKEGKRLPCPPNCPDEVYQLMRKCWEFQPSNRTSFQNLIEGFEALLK

Row | SMILES | JAK 2 (pKi) (JAK2) | JAK 1 (pKi) (JAK1) | BEAS2B pIC50 [1, 3] | THP-1 IL4 pIC50 [2, 4] | other results
1 | CCC(C)OC(=O)N1[C@@H]2CCC[C@H]1C[C@H](Nc1nc(Nc3cc(C)[nH]n3)cc3ncccc13)C2 (stereo partly drawn) [Example 3-12] | B (B represents a pKi value between 9 and 10 (Ki between 1 nM and 0.1 nM)) | B (B represents a pKi value between 9 and 10 (Ki between 1 nM and 0.1 nM)) | B (B represents a pEC50 value between 6.7 and 7.5 (EC50 between 200 nM and 32 nM)) |  | 
2 | Cc1cc(Nc2cc3ncccc3c(N[C@@H]3C[C@H]4CCC[C@@H](C3)N4S(=O)(=O)N3CCC3)n2)n[nH]1 [Example 4-29] |  | A (A represents a pKi value≥10 (Ki≤0.1 nM)) | A (A represents a pEC50 value≥7.5 (EC50≤32 nM)) | A (A represents a pEC50 value≥7.5 (EC50≤32 nM)) | 
3 | Cc1cnc2cc(Nc3cc(C)[nH]n3)nc(N[C@@H]3C[C@H]4CCC[C@@H](C3)N4S(=O)(=O)N3CC(C#N)C3)c2c1 [Example 6-9] | A (A represents a pKi value≥10 (Ki≤0.1 nM)) |  |  |  | THP-1 IL4 pIC50 [2, 5]: A (A represents a pEC50 value≥7.5 (EC50≤32 nM)); BEAS2B pIC50 [1, 6]: A (A represents a pEC50 value≥7.5 (EC50≤32 nM))
4 | COc1ccnc2cc(Nc3cc(C)[nH]n3)nc(N[C@@H]3C[C@H]4CC[C@@H](C3)N4C(=O)C(F)F)c12 [Example 7-5] |  |  |  |  | IC50 [2, 7]: 31.6 to 200 nM; Ki (JAK1): 0.1 to 1 nM; IC50 [1, 8]: 31.6 to 200 nM
5 | CCC1(S(=O)(=O)N2[C@@H]3CCC[C@H]2C[C@H](Nc2nc(Nc4cc(C)[nH]n4)cc4ncccc24)C3)CC1 [Example 4-20] | A (A represents a pKi value≥10 (Ki≤0.1 nM)) |  | A (A represents a pEC50 value≥7.5 (EC50≤32 nM)) | A (A represents a pEC50 value≥7.5 (EC50≤32 nM)) | 
6 | COc1cnc2cc(Nc3cc(C)[nH]n3)nc(N[C@@H]3C[C@H]4CC[C@@H](C3)N4CC(C)C)c2c1 [Example 6-14] |  | B (B represents a pKi value between 9 and 10 (Ki between 1 nM and 0.1 nM)) |  |  | THP-1 IL4 pIC50 [2, 5]: A (A represents a pEC50 value≥7.5 (EC50≤32 nM)); BEAS2B pIC50 [1, 6]: A (A represents a pEC50 value≥7.5 (EC50≤32 nM))
7 | COc1cnc2cc(Nc3cc(C)[nH]n3)nc(N[C@@H]3C[C@H]4CC[C@@H](C3)N4CCCF)c2c1 [Example 6-16] |  | B (B represents a pKi value between 9 and 10 (Ki between 1 nM and 0.1 nM)) |  |  | THP-1 IL4 pIC50 [2, 5]: B (B represents a pEC50 value between 6.7 and 7.5 (EC50 between 200 nM and 32 nM)); BEAS2B pIC50 [1, 6]: B (B represents a pEC50 value between 6.7 and 7.5 (EC50 between 200 nM and 32 nM))
8 | Cc1cc(Nc2cc3ncccc3c(N[C@@H]3C[C@H]4CCC[C@@H](C3)N4C(=O)c3cncc(C#N)c3)n2)n[nH]1 [Example 2-26] | B (B represents a pKi value between 9 and 10 (Ki between 1 nM and 0.1 nM)) | B (B represents a pKi value between 9 and 10 (Ki between 1 nM and 0.1 nM)) | C (C represents a pEC50 value<6.7 (EC50>200 nM)) |  | 
9 | Cc1cc(Nc2cc3ncccc3c(N[C@@H]3C[C@H]4CCC[C@@H](C3)N4C(=O)CCC(C)C)n2)n[nH]1 [Example 2-31] | B (B represents a pKi value between 9 and 10 (Ki between 1 nM and 0.1 nM)) | B (B represents a pKi value between 9 and 10 (Ki between 1 nM and 0.1 nM)) | B (B represents a pEC50 value between 6.7 and 7.5 (EC50 between 200 nM and 32 nM)) |  | 
10 | CCC(C)C(=O)N1[C@@H]2CC[C@H]1C[C@H](Nc1nc(Nc3cc(C)[nH]n3)cc3nccc(OC)c13)C2 (stereo partly drawn) [Example 7-4] |  | B (B represents a pKi value between 9 and 10 (Ki between 1 nM and 0.1 nM)) |  |  | THP-1 IL4 pIC50 [2, 5]: B (B represents a pEC50 value between 6.7 and 7.5 (EC50 between 200 nM and 32 nM)); BEAS2B pIC50 [1, 6]: B (B represents a pEC50 value between 6.7 and 7.5 (EC50 between 200 nM and 32 nM))
11 | C=CCOC(=O)N1[C@@H]2CC[C@H]1C[C@H](Nc1nc(Nc3cc(C)[nH]n3)cc3nc(CN4CCOCC4)ccc13)C2 [Example 5-17] |  |  | A (A represents a pEC50 value≥7.5 (EC50≤32 nM)) | B (B represents a pEC50 value between 6.7 and 7.5 (EC50 between 200 nM and 32 nM)) | 
12 | Cc1cc(Nc2cc3nc(CN4CCOCC4)ccc3c(N[C@@H]3C[C@H]4CC[C@@H](C3)N4CC(F)(F)F)n2)n[nH]1 [Example 15, N^7-(5-methyl-1H-pyrazol-3-yl)-2-(morpholinomethyl)-N^5-((1R,3s,5S)-8-(2,2,2-trifluoroethyl)-8-azabicyclo[3.2.1]octan-3-yl)-1,6-naphthyridine-5,7-diamine] |  |  |  |  | IC50 [2, 7]: < 31.6 nM; IC50 [1, 8]: < 31.6 nM
13 | COC(=O)c1cnc2cc(Nc3cc(C)[nH]n3)nc(N[C@@H]3C[C@H]4CC[C@@H](C3)N4CC(=O)OC(C)C)c2c1 [Example 6-41] | B (B represents a pKi value between 9 and 10 (Ki between 1 nM and 0.1 nM)) |  |  |  | THP-1 IL4 pIC50 [2, 5]: A (A represents a pEC50 value≥7.5 (EC50≤32 nM)); BEAS2B pIC50 [1, 6]: B (B represents a pEC50 value between 6.7 and 7.5 (EC50 between 200 nM and 32 nM))
14 | Cc1cc(Nc2cc3nc(CN4CCOCC4)ccc3c(N[C@@H]3C[C@H]4CC[C@@H](C3)N4S(=O)(=O)N3CCC3)n2)n[nH]1 [Example 5-21] |  |  |  |  | IC50 [2, 7]: < 31.6 nM; IC50 [1, 8]: < 31.6 nM
15 | CCS(=O)(=O)N1[C@@H]2CCC[C@H]1C[C@H](Nc1nc(Nc3cc(C)[nH]n3)cc3ncccc13)C2 [Example 10, N^5-((1R,3s,5S)-9-(ethylsulfonyl)-9-azabicyclo[3.3.1]nonan-3-yl)-N^7-(5-methyl-1H-pyrazol-3-yl)-1,6-naphthyridine-5,7-diamine] |  |  |  |  | IC50 [2, 7]: < 31.6 nM; IC50 [1, 8]: < 31.6 nM
16 | Cc1cc(Nc2cc3nc(CN4CCOCC4)ccc3c(N[C@@H]3C[C@H]4CCC[C@@H](C3)N4S(=O)(=O)c3cccnc3)n2)n[nH]1 [Example 5-27] |  |  | A (A represents a pEC50 value≥7.5 (EC50≤32 nM)) | A (A represents a pEC50 value≥7.5 (EC50≤32 nM)) | 
17 | COc1ccc2c(N[C@@H]3C[C@H]4CC[C@@H](C3)N4CC(C)C)nc(Nc3cc(C)[nH]n3)cc2n1 [Example 5-4] |  | B (B represents a pKi value between 9 and 10 (Ki between 1 nM and 0.1 nM)) | A (A represents a pEC50 value≥7.5 (EC50≤32 nM)) | A (A represents a pEC50 value≥7.5 (EC50≤32 nM)) | 
18 | Cc1cc(Nc2nc(N[C@@H]3C[C@H]4CC[C@@H](C3)N4S(=O)(=O)c3cncc(F)c3)c3cccnc3c2F)n[nH]1 [Example 8-5] |  | B (B represents a pKi value between 9 and 10 (Ki between 1 nM and 0.1 nM)) |  |  | THP-1 IL4 pIC50 [2, 5]: B (B represents a pEC50 value between 6.7 and 7.5 (EC50 between 200 nM and 32 nM)); BEAS2B pIC50 [1, 6]: A (A represents a pEC50 value≥7.5 (EC50≤32 nM))
19 | Cc1cc(Nc2cc3nc(CN4CCOCC4)ccc3c(N[C@@H]3C[C@H]4CCC[C@@H](C3)N4S(=O)(=O)c3cncc(F)c3)n2)n[nH]1 [Example 5-30] | A (A represents a pKi value≥10 (Ki≤0.1 nM)) |  | A (A represents a pEC50 value≥7.5 (EC50≤32 nM)) | A (A represents a pEC50 value≥7.5 (EC50≤32 nM)) | 
20 | CCS(=O)(=O)N1[C@@H]2CC[C@H]1C[C@H](Nc1nc(Nc3cc(C)[nH]n3)cc3nc(CN4CCOCC4)ccc13)C2 [Example 5-16] |  |  |  |  | IC50 [2, 7]: 31.6 to 200 nM; IC50 [1, 8]: 31.6 to 200 nM
21 | Cc1cc(Nc2cc3ncccc3c(N[C@@H]3C[C@H]4CCC[C@@H](C3)N4C(=O)c3ccccc3)n2)n[nH]1 [Example 2-25] | A (A represents a pKi value≥10 (Ki≤0.1 nM)) |  | A (A represents a pEC50 value≥7.5 (EC50≤32 nM)) | A (A represents a pEC50 value≥7.5 (EC50≤32 nM)) | 
22 | Cc1cc(Nc2cc3ncc(S(C)(=O)=O)cc3c(N[C@@H]3C[C@H]4CC[C@@H](C3)N4Cc3ccncc3)n2)n[nH]1 [Example 6-59] | A (A represents a pKi value≥10 (Ki≤0.1 nM)) |  |  |  | BEAS2B pIC50 [1, 6]: C (C represents a pEC50 value<6.7 (EC50>200 nM))
23 | Cc1cc(Nc2cc3ncccc3c(N[C@@H]3C[C@H]4CCC[C@@H](C3)N4S(=O)(=O)N3CCCC3)n2)n[nH]1 [Example 4-27] |  |  | A (A represents a pEC50 value≥7.5 (EC50≤32 nM)) | A (A represents a pEC50 value≥7.5 (EC50≤32 nM)) | 
24 | COc1ccc2c(N[C@@H]3C[C@H]4CC[C@@H](C3)N4CCCC#N)nc(Nc3cc(C)[nH]n3)cc2n1 [Example 5-2] |  | B (B represents a pKi value between 9 and 10 (Ki between 1 nM and 0.1 nM)) | A (A represents a pEC50 value≥7.5 (EC50≤32 nM)) | B (B represents a pEC50 value between 6.7 and 7.5 (EC50 between 200 nM and 32 nM)) | 
25 | Cc1cc(Nc2cc3ncccc3c(N[C@@H]3C[C@H]4CCC[C@@H](C3)N4Cc3cccnc3)n2)n[nH]1 [Example 1-47] | A (A represents a pKi value≥10 (Ki≤0.1 nM)) |  | A (A represents a pEC50 value≥7.5 (EC50≤32 nM)) | A (A represents a pEC50 value≥7.5 (EC50≤32 nM)) | 
26 | CNC(=O)CN1[C@@H]2CCC[C@H]1C[C@H](Nc1nc(Nc3cc(C)[nH]n3)cc3ncccc13)C2 [Example 17, N-methyl-2-((1R,3s,5S)-3-((7-((5-methyl-1H-pyrazol-3-yl)amino)-1,6-naphthyridin-5-yl)amino)-9-azabicyclo[3.3.1]nonan-9-yl)acetamide] |  |  |  |  | IC50 [2, 7]: 31.6 to 200 nM; IC50 [1, 8]: 31.6 to 200 nM
27 | COc1cnc2cc(Nc3cc(C)[nH]n3)nc(N[C@@H]3C[C@H]4CC[C@@H](C3)N4CC(F)(F)F)c2c1 [Example 6-17] |  |  |  |  | IC50 [2, 7]: < 31.6 nM; Ki (JAK1; read-out: JAK 1 (pKi) (converted)): 0.1 to 1 nM; IC50 [1, 8]: < 31.6 nM
28 | Cc1cc(Nc2nc(N[C@@H]3C[C@H]4CC[C@@H](C3)N4S(=O)(=O)c3cccnc3)c3cccnc3c2F)n[nH]1 [Example 8-4] |  | B (B represents a pKi value between 9 and 10 (Ki between 1 nM and 0.1 nM)) |  |  | THP-1 IL4 pIC50 [2, 5]: B (B represents a pEC50 value between 6.7 and 7.5 (EC50 between 200 nM and 32 nM)); BEAS2B pIC50 [1, 6]: B (B represents a pEC50 value between 6.7 and 7.5 (EC50 between 200 nM and 32 nM))

Reference: patent US10072026B2, “Crystalline form of 3-((1R,3s,5S)-3-((7-((5-methyl-1H-pyrazol-3-yl)amino)-1,6-naphthyridin-5-yl)amino)-8-azabicyclo[3.2.1]octan-8-yl)propanenitrile” (priority 2015, dated 2018)
